# In patent US8044077B2, “Alpha-(N-sulfonamido)acetamide compounds incorporating deuterium as inhibitors of beta amyloid peptide production” (Bristol-Myers Squibb Company, priority 2009, dated 2011):
# System: H4 APP751 SWE clone 8.20 (H4-8Sw cells), Aβ42 formation
# Assay: Inhibition of Aβ42 formation in cultured cells
# Assay type: cell-based
# Conditions: H4-8Sw cells (H4 neuroglioma stably expressing Swedish mutant APP751), 19 hours incubation, mean±SD, n=2
# Procedure: Compounds were assayed for Aβ42 inhibition in cells using H4 APP751 SWE clone 8.20, developed at Bristol-Myers Squibb, an H4 neuroglioma cell line stably expressing the Swedish mutant of APP751. Cells were maintained in log phase through twice weekly passage at a 1:20 dilution. For IC50 determinations, 30 μL cells (1.5×10^4 cells/well) in DMEM media containing 0.0125% BSA (Sigma A8412) were plated directly into 384-well compound plates (Costar 3709) containing 0.1 μL serially diluted compound in DMSO. Following incubation for 19 hours in 5% CO2 at 37° C., plates were briefly centrifuged (1000 rpm, 5 min). Antibody cocktails were freshly prepared by dilution into 40 mM Tris-HCl (pH 7.4) with 0.2% BSA and added to assay plates. For Aβ42 measurements, antibodies specific for the Aβ42 neoepitope (565, developed at Bristol-Myers Squibb; conjugated to the Wallac reagent (Perkin Elmer)) and the N-terminal sequence of Aβ peptide (26D6, developed at SIBIA/Bristol-Myers Squibb; conjugated to APC (Perkin Elmer)) were mixed and 20 μL of the mixture was added to each well of the incubated cell plate yielding a final concentration of 0.8 ng/well 565 and 75 ng/well 26D6. […] Signal was determined using a Viewlux counter (Perkin Elmer) and IC50 values determined using curve fitting in CurveMaster (Excel Fit based).
smiles,measurement,value
"[2H]c1nc(-c2ccc(CN([C@H](CCC(F)(F)F)C(N)=O)S(=O)(=O)c3ccc(Cl)cc3)c(F)c2)no1 [Example 1, (2R)-2-[[(4-Chlorophenyl)sulfonyl][[2-fluoro-4-(1,2,4-oxadiazol-5-deutero-3-yl)phenyl]methyl]amino]-5,5,5-trifluoropentanamide]",IC50,0.12 ± 0.01 nM
